Test results as given in a melting point compilation (Tetko et al.; mined from patent text by program, amines drawn as free bases though some values may be those of a salt).

Structure (SMILES)	melting point
CNC(=O)CCc1c(-c2ccccc2)n(C)c(=O)c2ccccc12	185 to 186 °C
FC(F)(F)Oc1ccc(/C=C/c2ccc(CBr)cc2)cc1	100 to 102 °C
O=[N+]([O-])c1ccc(C(Cl)=NNc2ccccc2)c(Cl)c1	124 to 126 °C
CNc1cc(C(C)=O)ccc1OCCCN1CCC(c2noc3cc(F)ccc23)CC1	151 to 153 °C
Nc1ncc(CN2CCN(c3ccc(Cl)cc3)CC2)c(N)n1	296 to 298 °C
Cc1[nH]cnc1CNC(=N)NC#N	216 to 221 °C
CCCCCC(C)C(C)c1cc(O)c2c(c1)OC(C)(C)c1ccncc1-2 (configuration not stated)	155 to 157 °C
NC(=O)C1=NN(c2cccc(COCC(F)(F)C(F)(F)F)c2)C(c2ccccc2)N1 (configuration not stated)	146 to 148 °C
Clc1nccnc1SN=Cc1ccccc1	93 to 94 °C
CC(=O)N1CC(=O)NC(=O)N1Cc1ccc(Cl)cc1	97 °C
Cc1cc2ncc(Cl)nc2cc1C	103 °C
CC(C)CN1C(=O)N(C)C2(NC(=O)NC2=O)c2cc(Cl)ccc21 (configuration not stated)	118 °C
COC(=O)c1ccc(C(=O)Nc2ccc3ccc(Cl)nc3n2)cc1	275 °C
O=C(Cc1cccs1)Nc1n[nH]c2cc(Cl)ccc12	210 °C
CC(C)Cn1c(COc2ccccc2)nc2c(N)nc3ccccc3c21	196 to 197 °C
O=S1(=O)c2ccccc2N(c2ccc(OCc3ccccc3)cc2)c2ccccc21	203 to 208 °C

Structure (SMILES)	melting point
Cc1nc(C=Cc2nc3ccc(F)cc3c(=O)n2-c2ccccc2C)cs1	211 to 212 °C
C#CCn1c(-c2ccc(Cl)nc2Cl)nc(OS(=O)(=O)C(F)(F)F)c(OC)c1=O	133 to 135 °C
COc1ccc(-c2c(Cl)c(CN3C(=O)CCC3=O)nc3sc4c(c23)CCN(C(C)=O)C4)cc1OC	208 to 210 °C
COc1ccc2c(c1)C=Cc1cc(C)ccc1C2c1cn(-c2ccnc(N(C)CC(=O)Nc3nc(CC(=O)O)cs3)n2)c(=O)[nH]c1=O (configuration not stated)	186 °C
C=CC1CC2=CC(=O)CCC2C2CCC3(C)C(OC(C)=O)CCC3C12 (configuration not stated)	130 to 134 °C
Cc1[nH]c2cc3c(cc2c1-c1ccccc1)C(C)(C)C=N3	233 to 235 °C
NCCCCCCCNC(=O)COCC(=O)NC1CCC2C3Cc4ccccc4C2(CCN3)C1 (configuration not stated)	83 to 85 °C
CC(C)(C)C(=O)Nc1cc2c(O)nc[nH]c-2n1	295 °C
Cc1ccc(S(=O)(=O)N(C)c2cc(C(C)(C)C)c(O)c(C(C)(C)C)c2)cc1	130 to 142 °C
COc1ccc(S(=O)(=O)n2ccc3ccnc(Nc4ccc(F)cc4)c32)cc1	125 to 127 °C
O=C1c2c(O)ccc(O)c2-c2nn(CC(O)CO)c3ccc(NCCNCCO)c1c23 (configuration not stated)	184 to 188 °C
Cc1cccc(C)c1CCCN1C(=O)c2ccccc2C1=O	92 to 93.5 °C
COC(=O)c1ccc(Cl)cc1C(=O)c1ccccc1F	115 to 116 °C
CC(C)c1c(O)cccc1O	79 to 82 °C
COc1c(N2CCC(n3cc(C)nn3)C2)c(F)cc2c(=O)c(C(=O)O)cn(C3CC3)c12 (configuration not stated)	174 to 176 °C

The remaining lines, values ahead:

melting point	Structure (SMILES)
258 to 260 °C	O=C(Nc1cc([N+](=O)[O-])cc([N+](=O)[O-])c1)c1cc(Br)ccc1O
201 to 202 °C	CCCn1nc2c(N)nc3ccccc3c2c1CCN(C(N)=O)c1ccc(F)cc1
178 to 180 °C	CC(C)(C)OC(=O)N1Cc2ccc(COc3cccc4c3CN(C3CCC(=O)NC3=O)C4=O)cc2C1 (configuration not stated)
159 to 160 °C	COc1ccc(CNc2nc(SC)ncc2CO)cc1Cl
94 to 96 °C	COC(c1ccc(NC(=O)c2c(C)nn(C)c2C)c(C(C)CC(C)C)c1)(C(F)(F)F)C(F)(F)F (configuration not stated)
134 to 137 °C	NCCOc1cc(-c2ccccn2)nc(-c2ccccn2)c1
106 °C	COc1ccc(OC)c2c(N=[N+]=[N-])ccnc12
156 to 157 °C	CS(=O)(=O)NCCCCn1c(CCCOc2ccccc2)nc2c(N)nc3ccccc3c21
164 to 168 °C	Cc1nc(N)nc(N)c1C=CC(C)(C)c1ccc(F)cc1
205 to 209 °C	Cn1ccc2cc(NC(=O)Nc3cccc4cccnc34)ccc21
63 to 64 °C	CCCN(CCC)CCCCCOc1ccc2oc(-c3ccc(OC)cc3)cc(=O)c2c1
128 to 129 °C	CCCC1=C(c2cccc([N+](=O)[O-])c2)C(=NO)CC1
111 to 112 °C	O=C(NCC(=O)N1CCCCC1)OCc1ccccc1
99 to 104 °C	COc1ccc(C(=O)Cc2c(Cl)cncc2Cl)c2c1OCC2C (configuration not stated)
140 °C	CC(C)S(=O)(=O)c1ccc(Oc2ccc([N+](=O)[O-])c(NCCC#N)c2)c(Cl)c1
159 to 162 °C	CC1(CCC(N)=O)C(=O)CCC1=O
250 to 253 °C	CC(=O)NC1CCN(Cc2cnc3cc(NC(=O)c4ccc(-c5ccc(F)cc5)cc4)ccc3c2)C1 (configuration not stated)
163 to 164 °C	CCC(C)(O/N=C(\C(=O)O)c1csc(NC(c2ccccc2)(c2ccccc2)c2ccccc2)n1)C(=O)OC(C)(C)C (configuration not stated)
135 to 137 °C	COC(=O)C(CCSC)c1nc(C)nc2c1nnn2-c1ccc(C(C)C)cc1Br (configuration not stated)
89 to 90 °C	CCc1oc(CCOc2ccc(N)cc2)nc1-c1ccccc1
67.6 to 69.9 °C	O=Cc1ccnc(OCC=CCNC(=O)CS(=O)Cc2ccco2)c1 (configuration not stated)

melting point	Structure (SMILES)
149 to 151 °C	CCCN1C(=O)C2CC(c3ccc([N+](=O)[O-])cc3)(C2)C1=O
153 to 154 °C	CC=CC(=O)c1c(CCC)[nH]c2cc(C(=O)OC)ccc12
85 to 87 °C	COc1cc(C=CC(=O)COc2ccccc2)ccc1O
107 to 109 °C	CCN(CC)c1ccc(C=O)c(OCCN2CCOCC2)c1
111 to 113 °C	CCCCCN1C(=O)C2(COc3cc4c(cc32)OCCO4)c2ccccc21 (configuration not stated)
260 to 261 °C	C=CCOc1ccc(C(=O)Oc2ccc(C(=O)O)cc2)cc1C12CC3CC(CC(C3)C1)C2
99 to 101 °C	OCC1OC(OCc2ccccc2)C(OCc2ccccc2)C(OCc2ccccc2)C1OCc1ccccc1 (configuration not stated)
68 to 70 °C	CCOC(=O)CC(C#N)(CC(=O)OCC)c1ccc(F)cc1
70 to 73 °C	CC(=O)O/N=C1\CCc2ccccc2C1=Cc1ccc(S(C)(=O)=O)cc1
73 to 74 °C	CCCc1cc2c(cc1O)CCO2
165 to 166 °C	Cc1nn(C)c(O)c1C(=O)c1ccc(Cl)cc1Cl
281 to 284 °C	CC(=CC(=O)O)C(=O)NN
210 to 211 °C	NC(=O)CNc1ncccc1NC(=O)c1cccc(Cl)c1
225 to 227 °C	COc1cc(Oc2ccc(S(C)(=O)=O)nc2)cc2cc(C3=NCC(CC(N)=O)S3)[nH]c12 (configuration not stated)
150 to 152 °C	Cn1ncc(C#N)c1-c1ccc([N+](=O)[O-])o1
272 to 274 °C	NC(=O)Cc1ccc(-c2cnc3[nH]c(=O)n(CC4CCCCC4)c3n2)cc1
295 to 296 °C	Oc1ccc(-c2nc3ccc(O)cc3c(-c3ccc(F)cc3)c2Cl)cc1
193 to 195 °C	Cc1ccc(Sc2cncc3sc(C(N)=O)cc23)c(C)c1
96 to 98 °C	COc1ccc(-c2ccc(COCCc3cccc(NS(=O)(=O)C(F)(F)F)c3)cc2)cc1
138 to 140 °C	CCOC(=O)NC(=O)C(C#N)=CNc1c(C)cccc1C
